{"source": "ChEMBL document CHEMBL1133731", "about": "“Novel potent ligands for the central nicotinic acetylcholine receptor: synthesis, receptor binding, and 3D-QSAR analysis” (J Med Chem, 2000)", "key": {"[1]": {"biological_target": "T1, Neuronal acetylcholine receptor; alpha4/beta2 (Rattus norvegicus, UniProt P09483+P12390)", "T1 sequence (P09483 whole entry)": "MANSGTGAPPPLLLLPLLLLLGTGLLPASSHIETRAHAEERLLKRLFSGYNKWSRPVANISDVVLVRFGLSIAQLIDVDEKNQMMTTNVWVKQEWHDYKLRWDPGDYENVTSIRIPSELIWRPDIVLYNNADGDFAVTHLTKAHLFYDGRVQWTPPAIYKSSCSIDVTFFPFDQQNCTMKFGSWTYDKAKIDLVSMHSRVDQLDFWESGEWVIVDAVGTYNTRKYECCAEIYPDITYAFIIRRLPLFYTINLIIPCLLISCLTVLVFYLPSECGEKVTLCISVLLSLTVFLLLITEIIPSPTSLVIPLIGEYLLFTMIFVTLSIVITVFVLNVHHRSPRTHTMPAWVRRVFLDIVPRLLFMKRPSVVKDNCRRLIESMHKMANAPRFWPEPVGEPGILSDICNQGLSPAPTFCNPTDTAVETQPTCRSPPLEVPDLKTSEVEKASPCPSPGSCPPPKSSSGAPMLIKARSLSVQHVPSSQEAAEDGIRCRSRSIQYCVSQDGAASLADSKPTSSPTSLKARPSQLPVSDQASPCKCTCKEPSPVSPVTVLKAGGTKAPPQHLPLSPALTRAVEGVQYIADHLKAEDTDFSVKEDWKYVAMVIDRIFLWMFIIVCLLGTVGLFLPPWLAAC", "T1 sequence (P12390 whole entry)": "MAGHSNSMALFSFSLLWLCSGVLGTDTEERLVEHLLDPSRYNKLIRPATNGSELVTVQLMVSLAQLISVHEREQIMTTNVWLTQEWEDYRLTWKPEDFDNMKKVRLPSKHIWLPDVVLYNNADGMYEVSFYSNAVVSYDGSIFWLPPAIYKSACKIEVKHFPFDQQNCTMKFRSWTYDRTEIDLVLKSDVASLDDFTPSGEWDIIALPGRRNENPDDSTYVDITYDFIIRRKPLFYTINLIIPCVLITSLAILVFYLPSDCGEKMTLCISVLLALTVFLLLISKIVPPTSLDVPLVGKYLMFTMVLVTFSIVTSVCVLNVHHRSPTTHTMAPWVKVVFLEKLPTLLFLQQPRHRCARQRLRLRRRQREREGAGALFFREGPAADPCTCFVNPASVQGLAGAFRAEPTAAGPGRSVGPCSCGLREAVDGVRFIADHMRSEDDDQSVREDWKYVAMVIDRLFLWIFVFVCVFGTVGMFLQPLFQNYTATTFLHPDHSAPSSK", "assay": "In vitro binding affinity for Nicotinic acetylcholine receptor alpha4-beta2 in rat cerebral cortical membrane using [3H]cytisine as radioligand", "type": "cell membranes"}, "[2]": {"biological_target": "T1, Neuronal acetylcholine receptor; alpha4/beta2", "assay": "In vitro binding affinity for Nicotinic acetylcholine receptor alpha4-beta2 (alpha4 beta-2 subtype of nAChRs) in rat cerebral cortical membrane using [3H]-cytisine as radioligand", "type": "cell membranes"}}, "data": [{"smiles": "c1cncc(OC2CCNC2)c1", "note": "(configuration not stated)", "values": [{"measurement": "IC50", "setting": "[1]; read-out: IC50", "value": 100, "unit": "nM"}]}, {"smiles": "c1ccc(Sc2cncc(N3CCCNCC3)c2)cc1", "values": [{"measurement": "IC50", "setting": "[1]; read-out: IC50", "value": 4, "unit": "nM"}]}, {"smiles": "c1cncc(OC[C@@H]2CCN2)c1", "values": [{"measurement": "IC50", "setting": "[1]", "value": 1.5, "unit": "nM"}]}, {"smiles": "C1=C(c2cccnc2)CC2CCC1N2", "note": "(configuration not stated)", "values": [{"measurement": "IC50", "setting": "[1]; read-out: IC50", "value": 6.7, "unit": "nM"}]}, {"smiles": "c1ccc2nc(-c3cncc(N4CCCNCC4)c3)ccc2c1", "values": [{"measurement": "IC50", "setting": "[1]; read-out: IC50", "value": 6.6, "unit": "nM"}]}, {"smiles": "c1cncc(-c2cncc(N3CCCNCC3)c2)c1", "values": [{"measurement": "IC50", "setting": "[1]; read-out: IC50", "value": 2.8, "unit": "nM"}]}, {"smiles": "COc1cc(N2CCCNCC2)cnc1OC", "values": [{"measurement": "IC50", "setting": "[1]; read-out: IC50", "value": 170, "unit": "nM"}]}, {"smiles": "NC(=O)c1cncc(N2CCCNCC2)c1", "values": [{"measurement": "IC50", "setting": "[1]; read-out: IC50", "value": 20, "unit": "nM"}]}, {"smiles": "COc1cc(N2CCCNCC2)cnc1Cl", "values": [{"measurement": "IC50", "setting": "[2]", "value": 0.68, "unit": "nM"}]}, {"smiles": "COc1ccc(N2CCCNCC2)cn1", "values": [{"measurement": "IC50", "setting": "[1]; read-out: IC50", "value": 170, "unit": "nM"}]}, {"smiles": "CCSc1ccc(N2CCCNCC2)cn1", "values": [{"measurement": "IC50", "setting": "[1]; read-out: IC50", "value": 170, "unit": "nM"}]}, {"smiles": "C=COc1cncc(N2CCCNCC2)c1", "values": [{"measurement": "IC50", "setting": "[2]", "value": 5, "unit": "nM"}]}, {"smiles": "Nc1cccc(-c2cncc(N3CCCNCC3)c2)c1", "values": [{"measurement": "IC50", "setting": "[1]; read-out: IC50", "value": 4, "unit": "nM"}]}, {"smiles": "COc1cncc(N2CCCNCC2)c1", "values": [{"measurement": "IC50", "setting": "[1]; read-out: IC50", "value": 1.9, "unit": "nM"}]}, {"smiles": "Oc1cncc(N2CCCNCC2)c1", "values": [{"measurement": "IC50", "setting": "[1]; read-out: IC50", "value": 2.4, "unit": "nM"}]}, {"smiles": "COCCOc1cncc(N2CCCNCC2)c1", "values": [{"measurement": "IC50", "setting": "[1]; read-out: IC50", "value": 2.4, "unit": "nM"}]}, {"smiles": "CCOc1cc(N2CCCNCC2)cnc1Br", "values": [{"measurement": "IC50", "setting": "[2]", "value": 0.87, "unit": "nM"}]}, {"smiles": "C1=CC(CSc2cncc(N3CCCNCC3)c2)C=C1", "values": [{"measurement": "IC50", "setting": "[1]; read-out: IC50", "value": 8, "unit": "nM"}]}, {"smiles": "OCCOc1cncc(N2CCCNCC2)c1", "values": [{"measurement": "IC50", "setting": "[1]; read-out: IC50", "value": 1.8, "unit": "nM"}]}, {"smiles": "CC(C)COc1cncc(N2CCCNCC2)c1", "values": [{"measurement": "IC50", "setting": "[1]; read-out: IC50", "value": 2.2, "unit": "nM"}]}, {"smiles": "Clc1cncc(OC2CCNC2)c1", "note": "(configuration not stated)", "values": [{"measurement": "IC50", "setting": "[1]; read-out: IC50", "value": 220, "unit": "nM"}]}, {"smiles": "c1cncc(OC2CCCNC2)c1", "note": "(configuration not stated)", "values": [{"measurement": "IC50", "setting": "[1]; read-out: IC50", "value": 190, "unit": "nM"}]}]}
